The target in one test is CDK2/Cyclin E1 (Homo sapiens (Human), UniProt P24941). In words: CDK2/Cyclin E1 Full length ADP-Glo Kinase Assay. Format: biochemical. The settings on record: 20 uM ATP, read-out: CDK2/ CyclinE1 IC50. The gist of the method:
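Full-length human CDK2/cyclin E1 was preincubated 30 min at room temperature with inhibitor, then reacted 90 min with ATP-containing substrate solution. ADP formed was measured by ADP-Glo luminescence; IC50 from 4-parameter fit of fractional velocity versus inhibitor concentration.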
For orientation: ADP-Glo first removes unused ATP, then detects ADP through luciferase.

The test system of another test is OVCAR-3 cells. In words: Cell Growth Inhibition, OVCAR-3 (CellTiterGlo, 6 days). Format: cell-based. Particulars: Homo sapiens, 144 h, OVCAR-3, 6-day treatment. Summed up: (§1)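 MCF-7 (ER+ breast adenocarcinoma) or CCNE1-amplified OVCAR-3 cells, 500/well in RPMI with 10% FBS, treated with half-log dilutions typically 10-10,000 nM for 6 days at 37 °C. CellTiterGlo 2.0 luminescence gave % growth inhibition versus control; IC50 by four-parameter variable-slope fit.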
On the technique in general: ATP-based viability assays read luminescence as a measure of living cells.

The target of another test is CDK4/Cyclin D1 (Homo sapiens (Human), UniProt P11802). The test is described as follows: CDK4/Cyclin D1 CHEF Assay (AQT0258 peptide). Format: biochemical. Particulars: 200 uM ATP, read-out: CDK4/ CyclinD1 AQT IC50. Summed up: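 Sox-labelled peptide AQT0258 phosphorylation read as chelation-enhanced fluorescence (ex 360/em 485 nm) with Mg(II). Enzyme preincubated with inhibitor 30 min at 22°C, substrate added, 3 h at 22°C; IC50 from four-parameter fit of fractional velocity versus inhibitor concentration.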
Sequence of CDK4/Cyclin D1 (P11802 whole entry): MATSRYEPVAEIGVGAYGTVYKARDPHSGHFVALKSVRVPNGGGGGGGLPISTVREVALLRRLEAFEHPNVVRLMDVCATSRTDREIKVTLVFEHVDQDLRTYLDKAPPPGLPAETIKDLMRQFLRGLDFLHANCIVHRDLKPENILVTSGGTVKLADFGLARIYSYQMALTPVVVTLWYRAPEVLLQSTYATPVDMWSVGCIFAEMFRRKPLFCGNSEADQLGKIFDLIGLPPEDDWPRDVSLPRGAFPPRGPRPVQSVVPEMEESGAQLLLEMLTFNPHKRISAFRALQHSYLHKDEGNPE
Sequence of CDK4/Cyclin D1 (P24385 whole entry partner): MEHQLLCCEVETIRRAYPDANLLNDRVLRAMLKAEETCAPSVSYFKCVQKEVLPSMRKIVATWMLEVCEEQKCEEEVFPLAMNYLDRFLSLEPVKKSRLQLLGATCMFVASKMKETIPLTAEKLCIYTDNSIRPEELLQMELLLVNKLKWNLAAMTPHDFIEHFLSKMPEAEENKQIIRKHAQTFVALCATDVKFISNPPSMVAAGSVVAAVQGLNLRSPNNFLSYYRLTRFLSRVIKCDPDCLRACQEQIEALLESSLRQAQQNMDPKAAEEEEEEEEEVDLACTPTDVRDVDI

The test system of a further test is MCF-7 cells. In words: Cell Growth Inhibition, MCF-7 (CellTiterGlo, 6 days). Particulars: Homo sapiens, MCF7, 144 h, MCF-7, 6-day treatment. Format: cell-based. The gist of the method: as §1
The target in another test is CDK1/Cyclin B1 (Homo sapiens (Human), UniProt P06493). The test is described as follows: CDK1/Cyclin B1 ADP-Glo Kinase Assay. Format: biochemical. The settings on record: ADP-Glo, 80 uM ATP; read-out: CDK1 Cyclin B1 IC50. Summed up:
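Enzyme and inhibitor pre-incubated 30 min at room temperature before ATP/substrate addition; reaction run 90 min at room temperature. ADP formed measured by ADP-Glo luminescence; IC50 from a 4-parameter fit of fractional velocity versus inhibitor concentration.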

Another test addresses CDK6/Cyclin D3 (Homo sapiens (Human), UniProt Q00534). The test is described as follows: CDK6/Cyclin D3 ADP-Glo Kinase Assay. Format: biochemical. Particulars: 100 uM ATP, read-out: CDK6/ CyclinD3 IC50. Summed up: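 Enzyme and inhibitor were pre-incubated for 30 min at room temperature before ATP/substrate was added. The kinase reaction ran 90 min at room temperature, and ADP formed was detected by ADP-Glo luminescence. IC50 was fitted with a 4-parameter equation to fractional velocity versus inhibitor concentration.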

Sequence of CDK6/Cyclin D3 (Q00534 whole entry): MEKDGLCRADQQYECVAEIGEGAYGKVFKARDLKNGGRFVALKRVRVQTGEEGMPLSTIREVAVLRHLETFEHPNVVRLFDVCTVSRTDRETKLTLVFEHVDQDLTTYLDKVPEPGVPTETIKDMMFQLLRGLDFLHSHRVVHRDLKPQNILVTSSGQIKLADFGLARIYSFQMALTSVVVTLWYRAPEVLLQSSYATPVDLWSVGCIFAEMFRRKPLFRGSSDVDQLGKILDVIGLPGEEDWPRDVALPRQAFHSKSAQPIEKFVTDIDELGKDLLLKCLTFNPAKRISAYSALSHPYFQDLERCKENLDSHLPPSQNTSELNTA
Sequence of CDK6/Cyclin D3 (P30281 whole entry partner): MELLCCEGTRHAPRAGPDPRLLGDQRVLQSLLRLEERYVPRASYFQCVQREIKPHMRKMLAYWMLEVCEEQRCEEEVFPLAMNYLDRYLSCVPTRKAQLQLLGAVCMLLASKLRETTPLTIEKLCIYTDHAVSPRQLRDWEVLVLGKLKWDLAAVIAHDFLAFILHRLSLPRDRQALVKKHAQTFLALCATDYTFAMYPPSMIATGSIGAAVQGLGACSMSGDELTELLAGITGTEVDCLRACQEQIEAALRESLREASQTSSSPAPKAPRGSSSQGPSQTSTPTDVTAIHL
Sequence of CDK1/Cyclin B1 (P06493 whole entry): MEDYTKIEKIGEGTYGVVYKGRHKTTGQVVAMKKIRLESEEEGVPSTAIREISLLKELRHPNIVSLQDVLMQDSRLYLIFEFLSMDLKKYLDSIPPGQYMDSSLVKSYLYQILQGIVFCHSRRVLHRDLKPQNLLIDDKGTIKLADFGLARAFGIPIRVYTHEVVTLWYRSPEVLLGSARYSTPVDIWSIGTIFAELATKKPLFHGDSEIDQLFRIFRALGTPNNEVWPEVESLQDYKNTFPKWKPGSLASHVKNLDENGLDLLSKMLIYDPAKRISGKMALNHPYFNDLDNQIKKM
Sequence of CDK1/Cyclin B1 (P14635 whole entry partner): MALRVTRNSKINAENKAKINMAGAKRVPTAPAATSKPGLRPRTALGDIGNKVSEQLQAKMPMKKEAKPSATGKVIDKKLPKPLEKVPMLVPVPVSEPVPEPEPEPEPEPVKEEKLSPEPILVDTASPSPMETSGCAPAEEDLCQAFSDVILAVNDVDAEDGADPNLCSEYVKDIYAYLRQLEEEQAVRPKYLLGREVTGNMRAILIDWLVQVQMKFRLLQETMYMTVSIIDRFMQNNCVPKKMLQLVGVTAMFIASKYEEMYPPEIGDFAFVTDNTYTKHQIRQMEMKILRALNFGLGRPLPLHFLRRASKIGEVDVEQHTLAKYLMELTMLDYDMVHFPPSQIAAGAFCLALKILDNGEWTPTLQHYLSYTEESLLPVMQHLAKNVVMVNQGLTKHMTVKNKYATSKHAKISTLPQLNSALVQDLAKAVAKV

On to `Cc1cc2cnc(NC3CCN(S(C)(=O)=O)CC3)nc2c(N2CC3(CNCC3(F)F)C2)n1` [Compound 85, 8-(8,8-difluoro-2,6-diazaspiro[3.4]octan-2-yl)-6-methyl-N-(1-(methylsulfonyl)piperidin-4-yl)pyrido[3,4-d]pyrimidin-2-amine], for which the IC50 on CDK2/Cyclin E1 was less than 200 nM; with OVCAR-3 cells, 500 to 2000 nM; on CDK4/Cyclin D1, less than 200 nM; with MCF-7 cells, 500 to 2000 nM; on CDK1/Cyclin B1, less than 200 nM; on CDK6/Cyclin D3, less than 200 nM.

Turning to `Cc1cc2cnc(N[C@@H]3CCOC[C@H]3O)nc2c(N2CC(O)(C3CC3)C2)n1` [Compound 86, 3-cyclopropyl-1-(2-(((3S,4R)-3-hydroxytetrahydro-2H-pyran-4-yl)amino)-6-methylpyrido[3,4-d]pyrimidin-8-yl)azetidin-3-ol], the IC50 at CDK2/Cyclin E1 is 200 to 500 nM; in the test with OVCAR-3 cells it was more than 2000 nM; on CDK4/Cyclin D1 it was less than 200 nM; in the test on MCF-7 cells, more than 2000 nM; at CDK1/Cyclin B1, more than 2000 nM; at CDK6/Cyclin D3, 200 to 500 nM.

With `Cc1cc2cnc(NC3CC4CC3CN4C)nc2c(N2CCC3(C2)CC3(F)F)n1` (stereo not drawn) [Compound 43, 8-(1,1-difluoro-5-azaspiro[2.4]heptan-5-yl)-6-methyl-N-(2-methyl-2-azabicyclo[2.2.1]heptan-5-yl)pyrido[3,4-d]pyrimidin-2-amine], the IC50 was 500 to 2000 nM on CDK2/Cyclin E1; 500 to 2000 nM with OVCAR-3 cells; less than 200 nM on CDK4/Cyclin D1; 500 to 2000 nM in the test with MCF-7 cells; more than 2000 nM at CDK1/Cyclin B1; 200 to 500 nM at CDK6/Cyclin D3.

On to `COC1CC2(C1)CN(c1nc(C3CC3)cc3cnc(NC4CCN(S(C)(=O)=O)CC4)nc13)C2` [Compound 75, 6-cyclopropyl-8-(6-methoxy-2-azaspiro[3.3]heptan-2-yl)-N-(1-(methylsulfonyl)piperidin-4-yl)pyrido[3,4-d]pyrimidin-2-amine], for which the IC50 at CDK2/Cyclin E1 is less than 200 nM; with OVCAR-3 cells, more than 2000 nM; at CDK4/Cyclin D1, less than 200 nM; in the test on MCF-7 cells it was more than 2000 nM; on CDK1/Cyclin B1, more than 2000 nM; at CDK6/Cyclin D3 it was less than 200 nM.

In the case of `Cc1cc2cnc(NC3CCN(S(=O)(=O)c4cnn(C)c4)CC3)nc2c(N2CC(F)(F)C3(CNC3)C2)n1` [Compound 89, 8-(8,8-difluoro-2,6-diazaspiro[3.4]octan-6-yl)-6-methyl-N-(1-((1-methyl-1H-pyrazol-4-yl)sulfonyl)piperidin-4-yl)pyrido[3,4-d]pyrimidin-2-amine], the IC50 on CDK2/Cyclin E1 was less than 200 nM; in the test on OVCAR-3 cells, 200 to 500 nM; at CDK4/Cyclin D1, less than 200 nM; with MCF-7 cells it was 500 to 2000 nM; on CDK1/Cyclin B1, less than 200 nM; at CDK6/Cyclin D3, less than 200 nM.

With `Cc1cc2cnc(NC3CCN(S(C)(=O)=O)CC3)nc2c(N2CCC3(C2)CC3(F)F)n1` (stereo not drawn) [Compound 41, 8-(1,1-difluoro-5-azaspiro[2.4]heptan-5-yl)-6-methyl-N-(1-(methylsulfonyl)piperidin-4-yl)pyrido[3,4-d]pyrimidin-2-amine], the IC50 on CDK2/Cyclin E1 was less than 200 nM; in the test with OVCAR-3 cells, more than 2000 nM; at CDK4/Cyclin D1, less than 200 nM; in the test on MCF-7 cells it was more than 2000 nM; at CDK1/Cyclin B1, less than 200 nM; on CDK6/Cyclin D3, less than 200 nM.

With `Cc1cc2cnc(NC3CCN(S(=O)(=O)C4CC4)CC3)nc2c(N2CC3(C2)CN(C2CC2)C3)n1` [Compound 48, 8-(6-cyclopropyl-2,6-diazaspiro[3.3]heptan-2-yl)-N-(1-(cyclopropylsulfonyl)piperidin-4-yl)-6-methylpyrido[3,4-d]pyrimidin-2-amine], the IC50 at CDK2/Cyclin E1 is less than 200 nM; with OVCAR-3 cells, more than 2000 nM; on CDK4/Cyclin D1, less than 200 nM; in the test with MCF-7 cells it was more than 2000 nM; on CDK1/Cyclin B1, 500 to 2000 nM; at CDK6/Cyclin D3, 200 to 500 nM.

Turning to `Cc1cc2cnc(Nc3ccc(N4CC5(CN(C)C5)C4)cc3)nc2c(N2CCC(C#N)(C3CC3)C2)n1` (stereo not drawn) [Compound 28, 3-cyclopropyl-1-(6-methyl-2-((4-(6-methyl-2,6-diazaspiro[3.3]heptan-2-yl)phenyl)amino)pyrido[3,4-d]pyrimidin-8-yl)pyrrolidine-3-carbonitrile], the IC50 was less than 200 nM at CDK2/Cyclin E1; 500 to 2000 nM in the test with OVCAR-3 cells; less than 200 nM at CDK4/Cyclin D1; 500 to 2000 nM in the test on MCF-7 cells; 500 to 2000 nM at CDK1/Cyclin B1; less than 200 nM on CDK6/Cyclin D3.

In the case of `Cc1cc2cnc(NC3CCN(S(=O)(=O)C4CC4)CC3)nc2c(N2CC(O)(C3CC3)C2)n1` [Compound 56, 3-cyclopropyl-1-(2-((1-(cyclopropylsulfonyl)piperidin-4-yl)amino)-6-methylpyrido[3,4-d]pyrimidin-8-yl)azetidin-3-ol], the IC50 on CDK2/Cyclin E1 is less than 200 nM; in the test on OVCAR-3 cells, 500 to 2000 nM; at CDK4/Cyclin D1, less than 200 nM; with MCF-7 cells it was 500 to 2000 nM; at CDK1/Cyclin B1, less than 200 nM; on CDK6/Cyclin D3, less than 200 nM.

For `COC1CC2(C1)CN(c1nc(C)cc3cnc(NC4CCN(S(C)(=O)=O)CC4)nc13)C2` [Compound 76, 8-(6-methoxy-2-azaspiro[3.3]heptan-2-yl)-6-methyl-N-(1-(methylsulfonyl)piperidin-4-yl)pyrido[3,4-d]pyrimidin-2-amine], the IC50 at CDK2/Cyclin E1 was less than 200 nM; with OVCAR-3 cells it was more than 2000 nM; at CDK4/Cyclin D1 it was less than 200 nM; in the test with MCF-7 cells, 500 to 2000 nM; at CDK1/Cyclin B1, 200 to 500 nM; at CDK6/Cyclin D3, less than 200 nM.

As for `Cc1cc2cnc(Nc3ccc(N4CC5(CN(C)C5)C4)cc3)nc2c(N2CCC3(CCOCC3)C2)n1` [Compound 35, 6-methyl-N-(4-(6-methyl-2,6-diazaspiro[3.3]heptan-2-yl)phenyl)-8-(8-oxa-2-azaspiro[4.5]decan-2-yl)pyrido[3,4-d]pyrimidin-2-amine], the IC50 is 200 to 500 nM on CDK2/Cyclin E1; 500 to 2000 nM in the test on OVCAR-3 cells; less than 200 nM at CDK4/Cyclin D1; 500 to 2000 nM with MCF-7 cells; more than 2000 nM on CDK1/Cyclin B1; less than 200 nM on CDK6/Cyclin D3.

On to `CCS(=O)(=O)N1CCC(Nc2ncc3cc(C)nc(N4CC(F)(F)C5(CNC5)C4)c3n2)CC1` [Compound 95, 8-(8,8-difluoro-2,6-diazaspiro[3.4]octan-6-yl)-N-(1-(ethylsulfonyl)piperidin-4-yl)-6-methylpyrido[3,4-d]pyrimidin-2-amine], for which the IC50 on CDK2/Cyclin E1 was less than 200 nM; in the test with OVCAR-3 cells, 500 to 2000 nM; on CDK4/Cyclin D1, less than 200 nM; in the test on MCF-7 cells, 500 to 2000 nM; on CDK1/Cyclin B1, less than 200 nM; on CDK6/Cyclin D3 it was less than 200 nM.

Regarding `CN1Cc2ccc(Nc3ncc4ccnc(N5CC6(C5)CS(=O)(=O)C6)c4n3)cc2C1` [Compound 24, 6-(2-((2-methylisoindolin-5-yl)amino)pyrido[3,4-d]pyrimidin-8-yl)-2-thia-6-azaspiro[3.3]heptane 2,2-dioxide], the IC50 was less than 200 nM at CDK2/Cyclin E1; 500 to 2000 nM with OVCAR-3 cells; less than 200 nM on CDK4/Cyclin D1; 500 to 2000 nM with MCF-7 cells; 500 to 2000 nM at CDK1/Cyclin B1; less than 200 nM on CDK6/Cyclin D3.

Turning to `Cc1cc2cnc(NC3CCN(S(=O)(=O)C4CC4)CC3)nc2c(N2CC(N3CC(F)C3)C2)n1` [Compound 72, N-(1-(cyclopropylsulfonyl)piperidin-4-yl)-8-(3-fluoro-[1,3′-biazetidin]-l′-yl)-6-methylpyrido[3,4-d]pyrimidin-2-amine], the IC50 at CDK2/Cyclin E1 was less than 200 nM; in the test on OVCAR-3 cells it was more than 2000 nM; at CDK4/Cyclin D1 it was 200 to 500 nM; in the test with MCF-7 cells, more than 2000 nM; at CDK1/Cyclin B1, 500 to 2000 nM; at CDK6/Cyclin D3, 200 to 500 nM.

Take `Cc1cc2cnc(NC3CCN(S(=O)(=O)c4ccn(C)n4)CC3)nc2c(N2CC(F)(F)C3(CNC3)C2)n1` [Compound 94, 8-(8,8-difluoro-2,6-diazaspiro[3.4]octan-6-yl)-6-methyl-N-(1-((1-methyl-1H-pyrazol-3-yl)sulfonyl)piperidin-4-yl)pyrido[3,4-d]pyrimidin-2-amine]: the IC50 is less than 200 nM at CDK2/Cyclin E1; 200 to 500 nM in the test with OVCAR-3 cells; less than 200 nM at CDK4/Cyclin D1; 500 to 2000 nM in the test on MCF-7 cells; less than 200 nM on CDK1/Cyclin B1; less than 200 nM on CDK6/Cyclin D3.

In the case of `Cc1cc2cnc(NC3CCN(S(=O)(=O)C4CC4)CC3)nc2c(N2CCC(OC(F)F)C2)n1` (stereo not drawn) [Compound 58, N-(1-(cyclopropylsulfonyl)piperidin-4-yl)-8-(3-(difluoromethoxy)pyrrolidin-1-yl)-6-methylpyrido[3,4-d]pyrimidin-2-amine], the IC50 at CDK2/Cyclin E1 was less than 200 nM; in the test with OVCAR-3 cells it was 500 to 2000 nM; on CDK4/Cyclin D1, less than 200 nM; with MCF-7 cells, 500 to 2000 nM; on CDK1/Cyclin B1, less than 200 nM; on CDK6/Cyclin D3, less than 200 nM.

(Values after patent publication US20240034731A1, “AZA-QUINAZOLINE COMPOUNDS AND METHODS OF USE” (Iambic Therapeutics, Inc., priority 2022, published 2024).)
